Test results from PMC8533253, “Bis-thiobarbiturates as Promising Xanthine Oxidase Inhibitors: Synthesis and Biological Evaluation” (Biomedicines, 2021).

Tests used:
[1] = Cytotoxicity/antiproliferative assay (MTT) on MCF-7; assay type: cell-based; conditions: human, MCF-7 cells (breast adenocarcinoma), read-out: Cytotoxicity (% cell viability at 30 µM) MCF-7
Method: (§1) XO inhibitory and antioxidant assays were performed in triplicate while antiproliferative assay was conducted in quadruplicate. For each assay, at least two independent experiments were performed. An initial screening at the concentration of 30 μM for all compounds under study was performed in each in vitro study. A second screening at 5 μM was performed for compounds that originated an inhibitory potential higher than 80% for the XO activity at 30 μM. Half-maximal inhibitory concentration (IC50) studies were performed for drugs used as a reference and for the most promising bis-thiobarbiturate in XO inhibitory, antioxidant, and cytotoxicity assays.
(§2) The cytotoxic potential of the compounds being studied was evaluated by quantifying the extent of the reduction of 3-(4,5-dimethylthiazol-2-yl)-2,5-diphenyltetrazolium bromide (MTT, VWR, Radnor, PA, USA) on tumor cell lines of the colon (Caco-2) and breast (MCF-7) adenocarcinoma and non-tumor human dermal fibroblasts (NHDF). All cell lines were obtained from the American Type Culture Collection (ATCC, Manassas, VA, USA) and were maintained in 75 cm^2 culture flasks in a humidified air incubator with 5% CO2 at 37 °C. NHDF cells have grown in RPMI 1640 medium (Sigma-Aldrich, St. Louis, MO, USA) supplemented with 10% fetal bovine serum (FBS), 10 mM 4-(2-hydroxyethyl)-1-piperazineethanesulfonic acid (HEPES), 2 mM L-glutamine, 1 mM sodium pyruvate, and 1% antibiotic/antimycotic (Ab: 10,000 units/mL penicillin G, […] streptomycin and 25 μg/mL amphotericin B). MCF-7 cells were cultured in high-glucose Dulbecco’s modified Eagle medium (DMEM, Sigma-Aldrich, St. Louis, MO, USA) supplemented with 10% FBS, and 1% Ab. The Caco-2 cell line was cultured in a high glucose DMEM supplemented with 20% FBS and 1% of the antibiotic mixture (Sp: 10,000 units/mL penicillin G and […] of streptomycin). For the assay, cells were seeded in 96-well plates (2 × 10^4 cells/mL) in the culture medium. After 48 h of adherence, cells were treated with the test solutions and incubated for 72 h. […] Untreated cells were used as a negative control and 5-FU as the positive control. Following incubation, the medium was removed and replaced with a fresh incomplete culture medium (without FBS and Ab or Sp) and MTT solution [5 mg/mL in phosphate buffer saline (PBS)]. After further incubation for 4 h at 37 °C, the medium with MTT was removed, formazan crystals were dissolved in DMSO, and the absorbance was read at 570 nm. Results were expressed as the relative cell proliferation in comparison with the negative control cells.
(§3) All in vitro results are expressed as mean values ± standard deviation (SD) of at least two independent determinations. The difference between groups was analyzed for each assay by Student’s t-test. The IC50 values were calculated by sigmoidal fitting analysis considering a 95% confidence interval.

Xanthine oxidase (XO) = target: T1, Xanthine oxidase (XO) (Bos taurus, UniProt P80457); assay: XO inhibitory assay (spectrophotometric quantification of uric acid formation at 295 nm); assay type: biochemical; conditions: read-out: XO inhibition (%)
T1 construct: purchased Sigma-Aldrich X4875
T1 sequence (P80457 whole entry): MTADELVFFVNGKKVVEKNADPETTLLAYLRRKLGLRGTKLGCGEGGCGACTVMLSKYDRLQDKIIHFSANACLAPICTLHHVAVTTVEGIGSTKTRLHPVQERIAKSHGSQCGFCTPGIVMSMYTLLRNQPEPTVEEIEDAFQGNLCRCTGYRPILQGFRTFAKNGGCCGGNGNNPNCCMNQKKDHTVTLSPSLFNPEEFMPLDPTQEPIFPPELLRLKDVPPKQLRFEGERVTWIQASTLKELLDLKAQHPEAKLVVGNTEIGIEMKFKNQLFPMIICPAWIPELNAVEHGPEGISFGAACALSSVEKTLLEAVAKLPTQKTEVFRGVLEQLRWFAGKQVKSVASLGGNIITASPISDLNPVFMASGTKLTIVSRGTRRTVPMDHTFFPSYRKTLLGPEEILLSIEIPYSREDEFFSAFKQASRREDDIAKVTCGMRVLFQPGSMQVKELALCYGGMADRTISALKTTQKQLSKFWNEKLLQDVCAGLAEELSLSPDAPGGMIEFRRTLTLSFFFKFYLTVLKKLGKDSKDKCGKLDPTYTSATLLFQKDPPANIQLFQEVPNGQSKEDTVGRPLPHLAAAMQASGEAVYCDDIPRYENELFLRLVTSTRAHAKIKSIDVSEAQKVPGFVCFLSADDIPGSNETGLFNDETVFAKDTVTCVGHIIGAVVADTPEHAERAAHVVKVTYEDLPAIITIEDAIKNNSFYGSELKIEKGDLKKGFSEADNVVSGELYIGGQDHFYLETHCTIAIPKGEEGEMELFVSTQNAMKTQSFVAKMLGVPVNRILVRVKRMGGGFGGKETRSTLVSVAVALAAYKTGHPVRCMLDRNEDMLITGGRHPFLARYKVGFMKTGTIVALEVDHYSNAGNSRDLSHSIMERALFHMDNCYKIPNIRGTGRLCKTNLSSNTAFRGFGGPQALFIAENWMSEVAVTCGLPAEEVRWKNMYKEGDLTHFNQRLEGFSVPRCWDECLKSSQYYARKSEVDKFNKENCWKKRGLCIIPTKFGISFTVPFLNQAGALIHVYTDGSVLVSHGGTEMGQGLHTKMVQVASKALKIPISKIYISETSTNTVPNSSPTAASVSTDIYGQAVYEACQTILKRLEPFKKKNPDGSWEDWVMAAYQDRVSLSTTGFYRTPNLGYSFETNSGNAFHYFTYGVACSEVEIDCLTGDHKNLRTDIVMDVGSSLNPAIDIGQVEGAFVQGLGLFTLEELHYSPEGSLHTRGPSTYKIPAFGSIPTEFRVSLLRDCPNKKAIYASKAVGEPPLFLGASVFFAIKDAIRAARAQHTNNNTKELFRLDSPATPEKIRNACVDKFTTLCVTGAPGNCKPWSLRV
Method: as §1, with “A second screening at 5 μM was performed for compounds that originated an inhibitory potential higher than 80% for the XO activity at 30 μM.” left out
The XO inhibitory activity was evaluated by spectrophotometric quantification of uric acid formation. The 50 mM dihydrogen phosphate buffer (pH 7.4) was used to dilute all solutions. For each assay performed, 50 μL of the test solution and 50 μL of the 0.1 U/mL XO (Sigma-Aldrich X4875, St. Louis, MO, USA) solution were added in each well of an Elisa microplate (96 wells) followed by 5 min of incubation at 37 °C. […] The reaction started with the addition of 150 μL of a xanthine solution (420 μM). The absorbance was recorded at a wavelength of 295 nm every minute for 10 min. To obtain only the absorbance associated with uric acid, a solution consisting of 50 μL of the test solution, 150 μL of the xanthine solution, and 50 μL of buffer were used as blank. […] For each compound, the percentage of enzyme inhibition was calculated according to the following formula:% of XO inhibition = [1 − (ABSsample − ABSblank of sample)/ABSnegative control] × 100
as §3

[2] = Antioxidant assay, DPPH method; conditions: 60 min
Method: as §1
Antioxidant potential was spectrophotometrically evaluated by the 2,2-diphenyl-1-picrylhydrazyl (DPPH, Sigma-Aldrich, St. Louis, MO, USA) method. All solutions and dilutions were prepared in 99.5% ethanol before each experiment. For each assay, 100 μL of the test solution and 100 μL of DPPH solution (0.2 mM) were added to each well of a 96 wells Elisa microplate. […] After 60 min of incubation in dark at rt, the capacity of each compound to reduce DPPH was followed by measuring the absorbance at 517 nm. Ethanol was used as a negative control and Trolox as the positive control. To discount the absorbance of each compound at 517 nm, a blank was performed with 100 μL of each test compound and 100 μL of ethanol. The antioxidant capacity of each sample was calculated according to the following formula:% DPPH scavenging = [1 − (ABSsample − ABSblank of sample)/ABSnegative control] × 100
as §3

[3] = Cytotoxicity assay (MTT) on NHDF; assay type: cell-based, human; conditions: human, NHDF cells (non-tumor human dermal fibroblasts), 30 µM, 72 h, MTT; read-out: Cytotoxicity (% cell viability at 30 µM) NHDF
Method: as §1, §2, §3

[4] = Cytotoxicity/antiproliferative assay (MTT) on Caco-2; assay type: cell-based; conditions: human, read-out: Cytotoxicity (% cell viability at 30 µM) Caco-2
Method: as §1, §2, §3

Row | Structure (SMILES) | viability at 72 h, 30 µM [1] [%] | melting point | inhibition at 30 µM (Xanthine oxidase (XO)) [%] | DPPH (% scavenging at 30 µM) [2] [%] | viability at 72 h, 30 µM [3] [%] | viability at 72 h, 30 µM [4] [%] | inhibition at 5 µM (Xanthine oxidase (XO)) [%] | IC50 ([2]; read-out: DPPH Scavenging IC50) [µM]
1 | CCn1c(O)c(C(c2ccc(NC(C)=O)cc2)c2c(O)n(CC)c(=S)n(CC)c2=O)c(=O)n(CC)c1=S [Compound 9, N-(4-(Bis(1,3-diethyl-6-hydroxy-4-oxo-2-thioxo-1,2,3,4-tetrahydropyrimidin-5-yl)methyl)phenyl)acetamide] | 90.2 ± 5.7 | 178 to 179 °C | 45.6 | 39.63 ± 2.26 | 81.3 ± 8.87 | 67.5 ± 9.4 | – | –
2 | CCn1c(O)c(C(c2ccc([N+](=O)[O-])cc2)c2c(O)n(CC)c(=S)n(CC)c2=O)c(=O)n(CC)c1=S [Compound 6, 5,5′-((4-Nitrophenyl)methylene)bis(1,3-diethyl-6-hydroxy-2-thioxo-2,3-dihydropirimidin-4(1H)-one)] | 91.7 ± 1.48 | 202 to 204 °C | 92.2 | 34.99 ± 1.32 | 99.8 ± 5.43 | 100 ± 4.45 | 56.8 | –
3 | CCn1c(O)c(C(c2cccc(O)c2)c2c(O)n(CC)c(=S)n(CC)c2=O)c(=O)n(CC)c1=S [Compound 12, 5,5′-((3-Hydroxyphenyl)methylene)bis(1,3-diethyl-6-hydroxy-2-thioxo-2,3-dihydropyrimidin-4(1H)-one)] | 91.7 ± 4.91 | 191 to 193 °C | 72.2 | 42.92 ± 0.61 | 85.6 ± 7.17 | 90.9 ± 3.84 | – | –
4 | CCn1c(O)c(C(c2ccc([N+](=O)[O-])cc2[N+](=O)[O-])c2c(O)n(CC)c(=S)n(CC)c2=O)c(=O)n(CC)c1=S [Compound 15, 5,5′-((2,4-Dinitrophenyl)methylene)bis(1,3-diethyl-6-hydroxy-2-thioxo-2,3-dihydropyrimidin-4(1H)-one)] | 91.2 ± 4.26 | 169 to 170 °C | 14.9 | 32.33 ± 0.48 | 91.2 ± 7.77 | 96.9 ± 4.73 | – | –
5 | O=c1[nH]cc(F)c(=O)[nH]1 [Compound 5-FU, 5-fluorouracil, reference compound] | 45.9 ± 4.72 | – | – | – | 20.9 ± 0.83 | 37.1 ± 1.51 | – | –
6 | Cc1c(C)c2c(c(C)c1O)CCC(C)(C(=O)O)O2 (stereo not shown) [Trolox, reference compound] | – | – | – | 54.86 ± 0.98 | – | – | – | 23.8 ± 2.13
7 | O=c1[nH]c(O)c(C(c2ccc([N+](=O)[O-])cc2)c2c(O)[nH]c(=O)[nH]c2=O)c(=O)[nH]1 | – | 227 °C (dec.) | – | – | – | – | – | –
8 | CCn1c(O)c(C(c2ccc(N(C)C)cc2[N+](=O)[O-])c2c(O)n(CC)c(=S)n(CC)c2=O)c(=O)n(CC)c1=S [Compound 14, 5,5′-((4-(Dimethylamino)-2-nitrophenyl)methylene)bis(1,3-diethyl-6-hydroxy-2-thioxo-2,3-dihydropyrimidin-4(1H)-one)] | 88.1 ± 3.25 | 143 to 145 °C | 90.7 ± 0.71 | 28.04 ± 0.25 | 80.1 ± 7.69 | 97.2 ± 2.97 | 56.3 ± 1.21 | –
9 | CCn1c(O)c(C(c2ccccc2)c2c(O)n(CC)c(=S)n(CC)c2=O)c(=O)n(CC)c1=S [Compound 3, 5,5′-(Phenylmethylene)bis(1,3-diethyl-6-hydroxy-2-thioxo-2,3-dihydropyrimidin-4(1H)-one)] | 90 ± 5.33 | 177 to 179 °C | 80.2 | 34.58 ± 0.96 | 88.7 ± 1.4 | 91.2 ± 9.87 | 10.4 | –
10 | CCn1c(O)c(C(c2ccccc2[N+](=O)[O-])c2c(O)n(CC)c(=S)n(CC)c2=O)c(=O)n(CC)c1=S [Compound 13, 5,5′-((2-Nitrophenyl)methylene)bis(1,3-diethyl-6-hydroxy-2-thioxo-2,3-dihydropyrimidin-4(1H)-one)] | 98.2 ± 3.25 | 172 to 173 °C | 89.7 | 29.90 ± 0.50 | 75.8 ± 2.41 | 95.4 ± 4.17 | 37.4 | –
11 | CCn1c(O)c(C(c2ccc(C#N)cc2)c2c(O)n(CC)c(=S)n(CC)c2=O)c(=O)n(CC)c1=S [Compound 5, 4-(Bis(1,3-diethyl-6-hydroxy-4-oxo-2-thioxo-1,2,3,4-tetrtahydropyrimidin-5-yl)methyl)benzonitrile] | 90.7 ± 4.06 | 199 to 200 °C | 86.1 | 34.76 ± 1.42 | 86.5 ± 5.92 | 62.5 ± 11.9 | 52.9 | –
12 | Cc1nc(-c2ccc(OCC(C)C)c(C#N)c2)sc1C(=O)O [Febuxostat, febuxostat, reference compound] | – | – | 95 | – | – | – | 93.9 ± 2.84 | –
13 | CCn1c(O)c(C(c2cc3c(cc2[N+](=O)[O-])OCO3)c2c(O)n(CC)c(=S)n(CC)c2=O)c(=O)n(CC)c1=S [Compound 17, 5,5′-((6-Nitrobenzo[d][1,3]dioxol-5-yl)methylene)bis(1,3-diethyl-6-hydroxy-2-thioxo-2,3-dihydropyrimidin-4(1H)-one)] | 86.6 ± 5.87 | 148 to 149 °C | 90.8 ± 2.87 | 40.90 ± 0.65 | 68.9 ± 9.33 | 88.7 ± 7.85 | 55.2 ± 1.63 | –
14 | Oc1ncnc2[nH]ncc12 [Allo, allopurinol, reference compound] | – | – | 88.5 | 0.48 ± 0.21 | – | – | 26.9 ± 0.82 | –
15 | CCn1c(O)c(C(c2ccc(OC)cc2)c2c(O)n(CC)c(=S)n(CC)c2=O)c(=O)n(CC)c1=S [Compound 10, 5,5′-((4-Methoxyphenyl)methylene)bis(1,3-diethyl-6-hydroxy-2-thioxo-2,3-dihydropyrimidin-4(1H)-one)] | 100 ± 13 | 139 to 140 °C | 23.5 | 38.12 ± 1.56 | – | 62.6 ± 7.74 | – | –
